We go through one molecule from patent US7531575B2, “Method of modulating cellular activity and agents useful for same” (Eberhard-Karls-Universität Tübingin, priority 2002, dated 2009).

What all share (format): cell-based, murine
In test [1] the test system is iNOS. Put plainly: iNOS activity by Griess assay (NO2 release), IFN-γ-stimulated N9 microglia. The settings on record: N9 cells, IFN-γ 200 u ml, 48 h. As for the experimental part:
(§1) Tranilast was a generous gift of Kissei Pharmaceuticals (Nagano, Japan). Murine recombinant IFN-γ was purchased from Boehringer (Mannheim, Germany). Dexamethasone (DEX) was obtained from Sigma (Deisenhofen, Germany). N9 murine microglial cells were a kind gift from P. Ricciardi-Castagnoli (Milano, Italy) (Righi, M., Mori, L., De Libero, G., Sironi, M., Biondi, A., Mantovani, A., Donini, S. D. and Ricciardi-Castagnoli, P. Eur J Immunol 19(8):1443-1448, 1989). The cells were cultured in Dulbecco's modified Eagle's medium (DMEM) supplemented with 10% foetal calf serum (FCS), 2 mM glutamine and penicillin ([…])/streptomycin (100 μg ml), and maintained at 37° C. in an atmosphere of 5% CO2. Viability was assessed by crystal violet staining.
iNOS activity was assessed by the Griess assay as described elsewhere (Rieger, J., Stander, M., Loschmann, P. A., Heneka, M., Dichgans, J., Klockgether, T. and Weller, M., Oncogene, 17:2323-2332, 1998). Briefly, conditioned supernatant (100 μl) was incubated with an equal volume of 1% sulphanilamide/0.1% naphthyl ethylene diamine dihydrochloride/2.5% H3PO4 (Griess reagent) (Green, L. C., Wagner, D. A., Glogowski, J., Skipper, P. I., Wishnok, J. S, and Tannenbaum, S. R., Anal. Biochem., 126:131-138, 1982), incubated for 5 min at room temperature, and the absorbance at […] determined. Solutions of NaNO2 diluted in DMEM served as standards. The absorbance readings resulting from DMEM alone were subtracted from the sample values. Cell density was assessed using crystal violet staining to control for differences in cell proliferation. iNOS activity is thus expressed here as NO2 accumulated per 48 h per 10^5 cells.

A further test relates to IκBα. Description: phospho-IκBα immunoblot, IFN-γ-stimulated N9 microglia. The settings on record: N9 cells, IFN-γ 200 u ml, tranilast 30-300 μM, 4 h preincubation. Here is the method:
as §1
For the preparation of whole cell lysates, the cells were rinsed in phosphate-buffered saline (PBS), harvested, centrifuged at 1200×g, lysed in 0.1 M TRIS-HCl (pH 7.2) containing 0.1% NP40, 0.1 mM EDTA and 5 μg ml PMSF for 40 min on ice, and centrifuged at 10,000×g for 10 min. Protein concentration was determined using Biorad reagents with photometric analysis. Proteins (20 μg lane) were separated by 10-12% SDS-PAGE and electroblotted on nitrocellulose. qual protein loading was controlled by Ponceau S staining. […]
Background: A western blot detects proteins with antibodies after separation by electrophoresis.

Test [2] has as its system iNOS. Put plainly: iNOS activity by Griess assay (nitrite formation), LPS-stimulated N9 microglia. The settings on record: N9 cells, LPS 10 μg/mL, 48 hr, concentration series. The source says: TNL was a generous gift of Kissei Pharmaceuticals, LPC (Escherichia coli, 0127:BS), phorbol 12-myristate 13-acetate (PMA) and dexamethasone (DEX) were obtained from Sigma, BAY 11-7082 (BAY), NF-κB SN50 inhibitory peptide (SN50), GF 109203X (GFX) and rottlerin (ROT) were purchased from Biomol. PD098059 (PD) was obtained from Calbiochem. Purified murine interferon-γ (IFN-γ) was purchased from Roche Diagnostics. N9 murine microglial cells were a kind gift from P. Ricciardi-Castagnoli (Righi, M. et al. 1989 supra). Cells were cultured in Dulbecco's modified Eagle's medium (DMEM) supplemented with 10% fetal calf serum (FCS), 2 mM glutamine, penicillin (100 unit/mL) and streptomycin (100 μg/mL) and maintained at 37° in an atmosphere of 5% CO2. Viability was assessed by crystal violet staining.
iNOS activity was assessed by the Griess assay (Platten, M., Wick, W., Wischhusen, J. and Weller, M. Br J Pharmacol 134(6):1279-1284, 2001). Briefly, conditioned supernatant was incubated with an equal volume of Griess reagent containing 1% sulphanilamide, 0.1% naphthylethylenediamine dihydrochloride and 2.5% H3PO4 (Green, L. C., Wagner, D. A., Glogowski, J., Skipper, P. I., Wishnok, J. S, and Tannenbaum, S. R. Anal. Biochem., 126:131-138, 1982) for 5 min. at room temperature. The absorbance was measured at 546 nm. NaNO2 diluted in DMEM served as a standard. To control for cell number, the cells were stained with crystal violet. iNOS activity is expressed as nitrite accumulated in 48 hr/10^5 cells.
In general terms: The Griess reaction detects nitrite, a stable product of nitric oxide.

Regarding `COc1ccc(/C=C/C(=O)Nc2ccccc2C(=O)O)cc1OC` [tranilast, 2-[[3-(3,4-dimethoxyphenyl)-1-oxo-2-propenyl]amino]benzoic acid], the “inhibition of NO release” value in the test on iNOS [1] (concentration series) is recorded as “concentration-dependent inhibition”. Moreover, the “reduction of NO release (NO2, Griess assay)” value with iNOS [1] (tranilast 300 μM) worked out at 65%. Besides, the “IκB phosphorylation in response to IFN-γ” value in the test on IκBα is “concentration-dependent suppression”. In the test with iNOS [2], the “nitrite formation after LPS” value is on record as “concentration-dependent decrease”.
